# Experimental data taken from patent US9872875B2, “Component and method for treating viral disease” (Institut Pasteur of Shanghai, Chinese Academy of Sciences, priority 2012, dated 2018).
# Key:
# RD cells = test: Cytotoxicity to RD cells (Celltiter Glo); format: cell-based
# Procedure: Cytotoxicity to RD cells at different E02 concentrations was measured using Celltitr Glo reagents as follows:
# (1) Cells seeding: 24 h prior to testing, RD cells were seeded in 96-well cell culture plates at 5×10^4 per well;
# (2) Cells incubated with E02: medium was removed from cell culture plates, 180 μl of DMEM containing 2% FBS was added, and then added 20 μl of DMEM solution with corresponding concentration of E02, placed in 37° C., 5% CO2 incubator for incubation;
# (3) After cultured for 46 h, cellular ATP levels were measured using the PROMEGA Celltitr Glo reagents according to reagent instructions.
# PPADS is an E02 analog (Khakh, Burnstock et al., 2001; Burnstock 2004; Coddou, Yan et al. 2011) and has a similar inhibitory effect on P2X subtypes to that of E02. RD cells were infected with EV71 clinical isolate FY 573 at different PPADS concentrations to determine the inhibitory effect of PPADS on EV71 replication. Detailed procedure is the same as that in “1” of Example 1. In addition, cytotoxicity to RD cells at each concentration of PPADS was determined. Detailed procedure is the same as that in “1” of Example 6.
# EV71 = test: Inhibition of EV71 replication in RD cells at 0.1, 1, 10 and 100 μM (CPE, crystal violet); format: cell-based, Enterovirus 71; settings: Table 8, antagonists
# Procedure, shortened: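 RD cells infected with EV71 and treated at 0.1, 1, 10 and 100 μM were incubated 3˜4 days, crystal violet-stained and inspected microscopically for CPE. Cytotoxicity was checked in parallel by culturing uninfected RD cells with compound for 3˜4 days and examining cell-layer damage.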
# P2X4 receptor = molecular target: T1, P2X4 receptor (Homo sapiens, UniProt Q99571); settings: Table 8, antagonists; cited from earlier work
# T1 sequence (Q99571 1-388): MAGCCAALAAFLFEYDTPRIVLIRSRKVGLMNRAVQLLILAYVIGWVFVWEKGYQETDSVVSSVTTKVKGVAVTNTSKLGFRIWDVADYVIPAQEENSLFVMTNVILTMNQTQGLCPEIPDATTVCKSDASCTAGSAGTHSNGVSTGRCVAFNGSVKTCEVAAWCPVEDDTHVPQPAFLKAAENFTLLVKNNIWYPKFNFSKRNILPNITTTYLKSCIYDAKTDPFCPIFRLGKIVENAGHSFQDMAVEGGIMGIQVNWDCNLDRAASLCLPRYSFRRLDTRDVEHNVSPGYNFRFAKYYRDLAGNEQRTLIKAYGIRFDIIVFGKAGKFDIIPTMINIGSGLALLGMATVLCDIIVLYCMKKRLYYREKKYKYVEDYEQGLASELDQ
# P2X6 receptor = P2X6 receptor (Homo sapiens, UniProt O15547); parameters: key: −: no activity; +: activating concentration >10 μM; ++: activating concentration 1~10 μM; +++: activating concentration <1 μM; settings: Table 8, antagonists; cited from earlier work
# P2X7 receptor = molecular target: T2, P2X7 receptor (Homo sapiens, UniProt Q99572); settings: Table 8, antagonists; cited from earlier work
# T2 sequence (Q99572 1-595): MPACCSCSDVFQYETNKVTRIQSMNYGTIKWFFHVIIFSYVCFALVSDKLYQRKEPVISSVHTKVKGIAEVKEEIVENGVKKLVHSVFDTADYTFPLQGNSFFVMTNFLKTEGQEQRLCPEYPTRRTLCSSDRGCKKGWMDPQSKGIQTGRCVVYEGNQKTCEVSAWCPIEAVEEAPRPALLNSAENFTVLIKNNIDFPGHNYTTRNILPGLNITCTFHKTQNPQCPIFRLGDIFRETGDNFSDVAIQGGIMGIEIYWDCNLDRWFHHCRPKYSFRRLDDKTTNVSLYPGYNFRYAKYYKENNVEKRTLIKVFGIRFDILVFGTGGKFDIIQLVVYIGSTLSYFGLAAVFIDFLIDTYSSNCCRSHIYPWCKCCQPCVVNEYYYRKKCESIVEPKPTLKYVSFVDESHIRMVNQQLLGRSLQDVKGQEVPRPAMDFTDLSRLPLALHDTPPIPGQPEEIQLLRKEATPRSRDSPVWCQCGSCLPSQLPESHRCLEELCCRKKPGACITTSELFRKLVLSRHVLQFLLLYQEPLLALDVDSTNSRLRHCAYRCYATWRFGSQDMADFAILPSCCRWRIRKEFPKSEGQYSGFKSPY
# [1] = system: EV71 M.A.V. (mouse-adapted strain); test: EV71 M.A.V. TCID50 in RD cells; format: cell-based, Enterovirus 71
# Description: EV71 M.A.V. in 10-fold serial dilutions was used to infect RD cells at different E02 concentrations. After cultured for 3-4 days, CPE was observed under optical microscope, and stained with crystal violet, to calculate 50% tissue culture infective dose. Specific steps are similar to that for testing corresponding TCID50 of Example 1.
# [2] = system: EV71 M.A.V. (mouse-adapted strain); test: EV71 M.A.V. PFU in RD cells; format: cell-based, Enterovirus 71; settings: Enterovirus A, read-out: EC50 to reduce EV71 M.A.V. PFU in RD cells
# Procedure: EV71 M.A.V. was used to infect RD cells cultured in 12-well plates at different E02 concentrations. After cultured for 5 to 7 days, stained and plaque-forming units were calculated. Detailed procedures were the same as the corresponding PFU testing method of Example 1.
# [3] = system: Coxsackie virus A16 (CVA16); test: Coxsackie virus A16 TCID50 in RD cells; format: cell-based
# Description: Coxsackie virus A16 in 10-fold serial dilutions were used to infect RD cells at different E02 concentrations. After cultured for 2 days, CPE was observed under optical microscope, and stained with crystal violet, to calculate 50% tissue culture infective dose. Specific procedures were the same as the TCID50 testing method of Example 1.
# [4] = Toxicity in ICR newborn mice; format: in vivo; settings: 50 mg/kg or 20 mg/kg intraperitoneally daily for 4 consecutive days
# Procedure: Three-day-old ICR mice were injected intraperitoneally and daily with 50 μl of E02 at a dose of 50 mg/kg, 20 mg/kg, or 50 μl of DMEM for 4 consecutive days.
# P2X6 receptor, sequence (O15547 whole entry): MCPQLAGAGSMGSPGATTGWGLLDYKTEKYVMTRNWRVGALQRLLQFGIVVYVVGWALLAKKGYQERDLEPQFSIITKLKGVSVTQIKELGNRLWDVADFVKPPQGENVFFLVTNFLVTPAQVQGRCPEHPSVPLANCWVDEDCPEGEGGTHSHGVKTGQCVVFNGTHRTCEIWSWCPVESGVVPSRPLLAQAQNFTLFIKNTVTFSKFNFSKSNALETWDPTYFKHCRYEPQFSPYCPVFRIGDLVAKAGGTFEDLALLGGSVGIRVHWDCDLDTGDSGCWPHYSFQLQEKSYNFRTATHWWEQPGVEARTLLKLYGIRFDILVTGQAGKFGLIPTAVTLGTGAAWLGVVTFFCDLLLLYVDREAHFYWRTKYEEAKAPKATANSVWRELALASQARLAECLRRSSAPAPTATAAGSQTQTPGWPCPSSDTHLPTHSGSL
SMILES,concentrations not cytotoxic to RD cells (RD cells; PPADS),Inhibition of EV71 replication (EV71),P2X receptors 4 (P2X4 receptor),P2X receptors 6 (P2X6 receptor),P2X receptors 7 (P2X7 receptor),inhibition of EV71 mouse adapted strain infection of RD cells ([1]; 10 μM of E02),"EC50 ([1]; Enterovirus A, EV71, RD, read-out: EC50 to reduce EV71 M.A.V. TCID50 in RD cells) [µM]",EC50 [2] [µM],effect on CVA16 TCID50 in RD cells ([3]; 10 μM of E02),"CVA16 titer in RD cells ([3]; 25 μM of E02, reduced from 1×10^9 TCID50/ml, 2 days)","cytotoxicity to RD cells (RD cells; 1×10^−6 to 1×10^4 μM of E02, 46 h, cellular ATP)",toxicity in three-day-old ICR mice [4]
"Cc1nc(N=Nc2ccc(S(=O)(=O)O)cc2S(=O)(=O)O)c(COP(=O)(O)O)c(C=O)c1O [PPADS, pyridoxal-phosphate-6-azophenyl-2′, 4′-disulphonic acid]",lower than 64 μM,+ (+: inhibitory concentration >300 nM),−,+ (+: inhibitory concentration >300 nM),+ (+: inhibitory concentration >300 nM),,,,,,,
"Cc1ccc(C(=O)Nc2ccc(S(=O)(=O)O)c3cc(S(=O)(=O)O)cc(S(=O)(=O)O)c23)cc1NC(=O)c1cccc(NC(=O)Nc2cccc(C(=O)Nc3cc(C(=O)Nc4ccc(S(=O)(=O)O)c5cc(S(=O)(=O)O)cc(S(=O)(=O)O)c45)ccc3C)c2)c1 [E02, Suramin Sodium]",,+ (+: inhibitory concentration >300 nM),−,−,−,completely inhibit,8.07,2,CVA16 TCID50 reduction,1×10^4 TCID50/ml,no cytotoxicity,No toxicity was observed
